Assay results as given in PMC11289669, “BAR502/fibrate conjugates: synthesis, biological evaluation and metabolic profile” (Frontiers in Chemistry, 2024).
“And” between values parts separate entries of the source, which are not always exact repeats. Identical values can stand only once.

Columns and labels:
[1] = target: T1, PPARα (Homo sapiens, UniProt Q07869); experiment: AlphaScreen coactivator (SRC-1) recruitment assay on PPARα; type: biochemical; settings: AlphaScreen SRC-1 recruitment; compounds at 50 µM (footnote); fenofibrate = 100%
T1 construct: 20 nM PPARα LBD GST fused (Thermo Scientific); purchased Thermo Scientific
T1 sequence (Q07869 239-466 limits assumed): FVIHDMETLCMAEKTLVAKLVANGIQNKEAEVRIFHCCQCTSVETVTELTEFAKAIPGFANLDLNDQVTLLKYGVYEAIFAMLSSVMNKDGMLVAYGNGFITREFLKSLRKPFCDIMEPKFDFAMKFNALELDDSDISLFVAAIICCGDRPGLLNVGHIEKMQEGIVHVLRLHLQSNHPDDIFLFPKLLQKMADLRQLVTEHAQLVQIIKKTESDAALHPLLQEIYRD
Protocol: Compounds’ ability to mediate cofactor recruitment was evaluated by employing AlphaScreen GST Detection Kit (PerkinElmer). Particularly, FXR agonism was evaluated employing 10 nM FXR-LBD GST-fused (Thermo Scientific) and 30 nM of biotinylated SRC1 peptide ([…]) in the presence of 20 μg/mL donor and acceptor beads and in buffer containing 50 mM Tris-HCl (pH7.4), 20 mM KCl, 1 mM DTT, and 0.1% BSA. For PPARα assay, a buffer containing 50 mM MOPS, 50 mM NaF, 0.05 mM CHAPS, and 0.05% BSA (pH = 7.4) was used, and 20 nM PPARα LBD GST fused (Thermo Scientific) and 60 nM of biotinylated SRC1 peptide were employed. Both acceptor and donor beads were added to reach 20 μg/mL final concentration. Incubations were performed in a final volume of 25 μL employing 384 wells Optiplate and Alpha signal was measured with Envision 2,105 (Perkin Elmer) multimode plate reader. […]

[2] = Microsomal stability in human liver microsomes; type: in vitro ADME; settings: pH 7.4, 1 µM
Protocol: (§1) Chemical stability in HCl Buffer, PBS buffer and culture medium (EMEM) was evaluated by LC-MS dissolving compound 1 at 10 μM (final concertation) in cited buffers and injecting aliquots removed from incubations at different time points. Microsomal stability was evaluated employing 50 mM potassium phosphate buffer (pH 7.4) containing 0.15 mg of Human liver microsomes (Sigma-Aldrich, St. Louis, MO, United States) 5 mM MgCl2, 1 mM NADPH, 5 mM glucose 6-phosphate, 0.4 U·mL^−1 glucose 6-phosphate dehydrogenase. Compounds were tested at 1 µM final concentration. Aliquots, removed at different time points, were diluted with ice-cold acetonitrile and analyzed by LC-MS.

[3] = Chemical stability in HCl buffer, PBS buffer and culture medium by LC-MS; type: physicochemical; settings: 10 μM
Protocol: as §1

Row | SMILES | PPARα efficacy (% vs. fenofibrate) [1] | microsomal CLint at 1 µM [2] | half-life at 1 µM ([2]; read-out: t1/2 in human microsomes) | Chemical stability in HCl buffer ([3]; HCl buffer, 2h) | Chemical stability in PBS buffer ([3]; PBS buffer pH 7.4, 8 h) | Chemical stability in culture medium ([3]; culture medium (EMEM), 8 h)
1 | CC[C@H]1[C@@H](O)[C@@H]2[C@H](CC[C@]3(C)[C@@H]([C@H](C)CCO)CC[C@@H]23)[C@@]2(C)CC[C@@H](O)C[C@@H]12 [BAR502, 6α-ethyl-3α,7α-dihydroxy-24-nor-5β-cholan-23-ol] | 36% and 36 ± 12% | – | – | – | – | –
2 | CC[C@@H]1C2C[C@H](O)CC[C@]2(C)C2CC[C@@]3(C)C(CC[C@@H]3[C@H](C)CCOC(=O)C(C)(C)Oc3ccc(Cl)cc3)C2[C@@H]1O (stereo partly drawn) [Compound 1] | – | 87 µL/min/mg | 27 min | stable | stable | stable
